Reference: patent US20250351832A1, “PHYTOCHEMICALS AS BIOPESTICIDES AND BIOSTIMULANTS” (KAY BEE BIO ORGANICS PVT. LTD., priority 2024, published 2025)
Like-named read-outs stand apart in the source and are kept apart here.

Assays:
[1] = tested on: Mite; settings: mite on okra plants, green house, dose 1 ml/gm/lit. spray; for % Mortality at 48 Hrs. / Total No. of dead insect at 48 Hrs.: 48 hrs after application; for % Corrected Mortality at 48 Hrs.: corrected for water control
[2] = tested on: Thrips; experiment: whole plant or invertebrate; settings: in Gossypium hirsutum, 48 h
[3] = tested on: Helicoverpa armigera; settings: Helicoverpa armigera 3rd instar on chickpea plants, dose 1 ml/gm/lit. spray; for % Mortality at 72 Hrs.: 72 hrs after application; for % Corrected Mortality at 72 Hrs.: corrected for water control
[4] = tested on: Thrips; settings: Thrips on cotton leaves, dose 1 ml/gm/lit.; for Total No. of dead insect at 48 Hrs.: 10 insects/treatment
[5] = tested on: Mite; settings: Dose 1 ml/gm/lit.; for Total No. of dead insect at 48 Hrs.: 10 insects/treatment, 4 replications, okra leaves
[6] = tested on: Alternaria alternata; experiment: In vitro poisoned food technique against fungus (Ex. 20); assay type: cell-based; settings: poisoned food technique, PDA medium, dose 1 ml/gm/lit., after seven days
[7] = tested on: Mealy Bug; settings: mealy bug on cotton plants, green house, dose 1 ml/gm/lit. spray; for % Mortality at 48 Hrs. / Total No. of dead insect at 48 Hrs.: 48 hrs after application; for % Corrected Mortality at 48 Hrs.: corrected for water control
[8] = tested on: Alternaria alternata; experiment: Alternaria leaf spot/blight on inoculated tomato plants (Ex. 28); assay type: in vivo; settings: tomato plants, Alternaria alternata; after 7 days; dose 1 ml/gm/lit
[9] = tested on: chili seedlings; experiment: Response of chili plants, greenhouse growth (Ex. 31); assay type: in vivo; settings: chili seedlings, dose 1 ml/gm/lit; for CCI 5th Day / Plant Height (cm) 5th Day: 5th day after application; for CCI 10th Day / Plant Height (cm) 10th Day: 10th day after application; for CCI % Increase over pre on 10th Day / Plant Height % Increase over pre on 10th Day / Root Lenght (cm) 10th Day / Stem Girth % Increase over pre on 10th Day / Root Lenght % Increase over control: 10th day; for Root Lenght % Increase over control: vs water control
[10] = tested on: tomato seedlings; experiment: Response of tomato plants, greenhouse growth (Ex. 30); assay type: in vivo; settings: tomato seedlings, dose 1 ml/gm/lit; for Plant Height 5th Day / Stem Girth 5th Day / CCI 5th Day: 5th day after application; for Plant Height 10th Day / Stem Girth 10th Day / CCI 10th Day: 10th day after application; for Plant Height % Increase over pre on 10th Day / Stem Girth % Increase over pre on 10th Day / CCI % Increase over pre on 10th Day / Root Length (cm) 10th Day / Root Length % Increase over control: 10th day; for Root Length % Increase over control: vs water control
[11] = tested on: Spodoptera litura; settings: Spodoptera litura on castor leaves, dose 1 ml/gm/lit.; for Total No. of dead insect at 72 Hrs.: 10 insects/treatment
[12] = tested on: Spodoptera litura; experiment: whole plant or invertebrate; settings: 72 h
[13] = tested on: Helicoverpa armigera; settings: Helicoverpa armigera on okra fruits, dose 1 ml/gm/lit., 72 Hrs.; for Total No. of dead insect at 72 Hrs.: 10 insects/treatment, 4 replications; for % Corrected Mortality at 72 Hrs.: corrected for water control
[14] = cited from earlier work
[15] = tested on: Aphid; settings: Aphids on cotton plants, green house, dose 1 ml/gm/lit.; for Total No. of dead insect at 48 Hrs.: 10 insects/plant, 10 plants/treatment
[16] = tested on: Aphid; experiment: whole plant or invertebrate; settings: 48 h
[17] = tested on: Mealy Bug; settings: Mealy Bug on cotton leaves, dose 1 ml/gm/lit., 48 Hrs.; for Total No. of dead insect at 48 Hrs.: 10 insects/treatment, 4 replications; for % Corrected Mortality at 48 Hrs.: corrected for water control
[18] = tested on: Aphid; settings: Dose 1 ml/gm/lit.; for Total No. of dead insect at 48 Hrs.: 10 insects/treatment, 4 replications, cotton leaves
[19] = tested on: Thrips; settings: thrips on cotton plants, greenhouse, dose 1 ml/gm/lit. spray; for % Mortality at 48 Hrs. / Total No. of dead insect at 48 Hrs.: 48 hrs after application; for % Corrected Mortality at 48 Hrs.: corrected for water control
[20] = tested on: Spodoptera litura; settings: Spodoptera litura 3rd instar on cabbage plants, dose 1 ml/gm/lit. spray
[21] = read-out: % Corrected Mortality at 48 Hrs.
[22] = read-out: % Mortality at 48 Hrs.
[23] = Table 13, descriptive, no test described
[24] = 48 hrs, corrected for water control
[25] = 72 hrs, corrected for water control

Molecule: CC1=CC(=O)C(C(C)C)=CC1=O [Thymoquinone]
- % Mortality at 48 Hrs. [1]: 30.00%
- Total No. of dead insect at 48 Hrs. [1]: 30.00
- % Corrected Mortality at 48 Hrs. [1]: 26.32%
- mortality at 1 mL or g/L [2, 21]: 11.4%
- mortality at 1 mL or g/L [2, 22]: 22.5%
- % Mortality at 72 Hrs. [3]: 45.00%
- % Corrected Mortality at 72 Hrs. [3]: 45.00%
- Total No. of dead insect at 48 Hrs. ([4]; 48 hrs after application): 2.25
- Total No. of dead insect at 48 Hrs. [5]: 3.25
- % Corrected Mortality at 48 Hrs. [5]: 27.03%
- % Mortality at 48 Hrs. [5]: 32.50%
- Mean colony Diameter (mm) [6]: 54.00 mm
- inhibition of growth at 1 mL or g/L ([6]; vs untreated control, read-out: % Inhibition of growth): 38.6%
- % Mortality at 48 Hrs. [7]: 50.00%
- Total No. of dead insect at 48 Hrs. [7]: 50.00
- % Corrected Mortality at 48 Hrs. [7]: 44.44%
- % Disease reduction over Control [8]: 44.63%
- CCI 5th Day [9]: 13.76
- Plant Height (cm) 5th Day [9]: 5.77 cm
- CCI % Increase over pre on 10th Day [9]: 58.19%
- Plant Height % Increase over pre on 10th Day [9]: 63.27%
- Root Lenght (cm) 10th Day [9]: 4.16 cm
- Stem Girth % Increase over pre on 10th Day [9]: 57.48%
- CCI 10th Day [9]: 14
- Plant Height (cm) 10th Day [9]: 6.89 cm
- Root Lenght % Increase over control [9]: 52.17%
- Plant Height 5th Day [10]: 6.58 cm
- Stem Girth 5th Day [10]: 1.68 mm
- Plant Height 10th Day [10]: 7.69 cm
- Stem Girth 10th Day [10]: 2.30 mm
- Plant Height % Increase over pre on 10th Day [10]: 41.36%
- Stem Girth % Increase over pre on 10th Day [10]: 74.24%
- CCI 5th Day [10]: 14.21
- CCI % Increase over pre on 10th Day [10]: 30.73%
- Root Length (cm) 10th Day [10]: 4.42 cm
- CCI 10th Day [10]: 16.21
- Root Length % Increase over control [10]: 32.93%
- Total No. of dead insect at 72 Hrs. ([11]; 72 hrs after application): 4.25
- mortality at 1 mL or g/L ([12]; read-out: % Corrected Mortality at 72 Hrs.): 39.5%
- mortality at 1 mL or g/L ([12]; read-out: % Mortality at 72 Hrs.): 42.5%
- Total No. of dead insect at 72 Hrs. [13]: 4.25
- % Mortality at 72 Hrs. [13]: 42.50%
- % Corrected Mortality at 72 Hrs. [13]: 42.50%
- Acaricidal Activity - Mode of action [14, 23]: Contact acaricidal activity
- Antioxidant Activity - Mode of action [14, 23]: Reducing Oxidative Stress
- Bactericidal Activity - Mode of action [14, 23]: Inhibitory effect on spore
- Insecticidal Activities - Mode of action [14, 23]: Decreased larval survival
- Total No. of dead insect at 48 Hrs. ([15]; 48 hrs): 47.50
- mortality at 1 mL or g/L [16, 21]: 38.2%
- mortality at 1 mL or g/L [16, 22]: 47.5%
- Total No. of dead insect at 48 Hrs. [17]: 5.25
- % Mortality at 48 Hrs. [17]: 52.50%
- % Corrected Mortality at 48 Hrs. [17]: 50.00%
- Total No. of dead insect at 48 Hrs. [18]: 4.75
- % Corrected Mortality at 48 Hrs. ([18]; 48 hrs): 40.00%
- % Mortality at 48 Hrs. [19]: 20.00%
- Total No. of dead insect at 48 Hrs. [19]: 20.00
- % Corrected Mortality at 48 Hrs. [19]: 11.11%

Molecule: Berberine
- % Mortality at 48 Hrs. [1]: 45.00%
- Total No. of dead insect at 48 Hrs. [1]: 45.00
- % Corrected Mortality at 48 Hrs. [1]: 42.11%
- % Mortality at 72 Hrs. [3]: 62.50%
- % Corrected Mortality at 72 Hrs. [3]: 62.50%
- Total No. of dead insect at 48 Hrs. ([4]; 48 hrs after application): 6.50
- % Mortality at 48 Hrs. ([4]; 48 hrs after application): 65.00%
- % Corrected Mortality at 48 Hrs. [4, 24]: 60.00%
- Total No. of dead insect at 48 Hrs. [5]: 4.75
- % Corrected Mortality at 48 Hrs. [5]: 43.24%
- % Mortality at 48 Hrs. [5]: 47.50%
- Mean colony Diameter (mm) [6]: 45.50 mm
- % Inhibition of growth ([6]; vs untreated control): 48.30%
- % Mortality at 48 Hrs. [7]: 70.00%
- Total No. of dead insect at 48 Hrs. [7]: 70.00
- % Corrected Mortality at 48 Hrs. [7]: 66.67%
- % Disease reduction over Control [8]: 52.89%
- CCI 5th Day [9]: 13.04
- Plant Height (cm) 5th Day [9]: 6.15 cm
- CCI % Increase over pre on 10th Day [9]: 36.98%
- Plant Height % Increase over pre on 10th Day [9]: 50.11%
- Root Lenght (cm) 10th Day [9]: 3.11 cm
- Stem Girth % Increase over pre on 10th Day [9]: 40.15%
- CCI 10th Day [9]: 14.04
- Plant Height (cm) 10th Day [9]: 6.89 cm
- Root Lenght % Increase over control [9]: 13.75%
- CCI Pre ([9]; pre-application baseline): 10.25
- Plant Height (cm) Pre ([9]; pre-application baseline): 4.59 cm
- % Mortality at 72 Hrs. ([20]; 72 hrs after application): 67.50%
- % Corrected Mortality at 72 Hrs. [20, 25]: 65.79%
- Plant Height 5th Day [10]: 6.78 cm
- Stem Girth 5th Day [10]: 2.01 mm
- Plant Height 10th Day [10]: 7.34 cm
- Stem Girth 10th Day [10]: 2.25 mm
- Plant Height % Increase over pre on 10th Day [10]: 29.91%
- Stem Girth % Increase over pre on 10th Day [10]: 54.11%
- Plant Height Pre ([10]; before application): 5.65 cm
- Stem Girth Pre ([10]; before application): 1.46 mm
- CCI 5th Day [10]: 14.53
- CCI % Increase over pre on 10th Day [10]: 24.86%
- Root Length (cm) 10th Day [10]: 4.13 cm
- CCI 10th Day [10]: 15.67
- Root Length % Increase over control [10]: 24.12%
- CCI Pre ([10]; pre-application baseline): 12.55
- Total No. of dead insect at 72 Hrs. ([11]; 72 hrs after application): 7.00
- % Mortality at 72 Hrs. ([11]; 72 hrs after application): 70.00%
- % Corrected Mortality at 72 Hrs. [11, 25]: 68.42%
- Total No. of dead insect at 72 Hrs. [13]: 6.50
- % Mortality at 72 Hrs. [13]: 65.00%
- % Corrected Mortality at 72 Hrs. [13]: 65.00%
- Antifungal Activity - Mode of action [14, 23]: Inhibit multipath mechanisms,
- Antioxidant Activity - Mode of action [14, 23]: Reducing Oxidative Stress
- Bactericidal Activity - Mode of action [14, 23]: Resulting in DNA damage,
- Insecticidal Activities - Mode of action [14, 23]: Disturbed moulting, larval-
- Nematicidal Activity - Mode of action [14, 23]: Effective against root knot
- Phytotonic Effect ([14]; Table 13, effect on plants, descriptive): Boost
- Total No. of dead insect at 48 Hrs. ([15]; 48 hrs): 55.00
- % Mortality at 48 Hrs. ([15]; 48 hrs after application): 55.00%
- % Corrected Mortality at 48 Hrs. [15, 24]: 47.06%
- Total No. of dead insect at 48 Hrs. [17]: 7.50
- % Mortality at 48 Hrs. [17]: 75.00%
- % Corrected Mortality at 48 Hrs. [17]: 73.68%
- Total No. of dead insect at 48 Hrs. [18]: 5.25
- % Corrected Mortality at 48 Hrs. ([18]; 48 hrs): 45.71%
- % Mortality at 48 Hrs. ([18]; 48 hrs): 52.50%
- % Mortality at 48 Hrs. [19]: 67.50%
- Total No. of dead insect at 48 Hrs. [19]: 67.50
- % Corrected Mortality at 48 Hrs. [19]: 63.89%
